Holding throughout (type): in vivo
In assay [1] the test system is velvetleaf (Abutilon theophrasti medicus). The assay is described as follows: Test Example 2: herbicidal effect by soil application to upland field. The conditions noted are these: soil surface spray, upland field soil, 1,000 g active ingredient per hectare, 21st day after application. The method, boiled down:
(§1)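 After sowing and covering, the soil received an even aqueous spray of wettable powder at a rate of 1,000 g active ingredient/ha (1,000 L/ha). Ratings of herbicidal effect followed a standard scale 21 days post-treatment, with plants held in a greenhouse.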

Assay [2] concerns green foxtail (Setaria viridis (L.) P. Beauv.). Described as above. To be noted: soil surface spray, upland field soil, 1,000 g active ingredient per hectare, 21st day after application. In outline: as §1
Assay [3] relates to barnyardgrass (Echinochloa crus-galli (L.) P. Beauv. var. crus-galli). The description is as above. The conditions noted are these: soil surface spray, upland field soil, 1,000 g active ingredient per hectare, 21st day after application. In outline:
as §1

In assay [4] the test system is slender amaranth (Amaranthus viridis L.). Described as above. The conditions noted are these: soil surface spray, upland field soil, 1,000 g active ingredient per hectare, 21st day after application. The method, boiled down: as §1
The subject of assay [5] is velvetleaf (Abutilon theophrasti medicus). Nature of the assay: Test Example 3: herbicidal effect by application to upland field (foliage treatment). The conditions noted are these: 14th day after application; for herbicidal effect, Velvetleaf: foliage treatment, 1,000 g active ingredient per 1 hectare, greenhouse. In outline:
(§2)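 Foliage treatment, greenhouse: 2-week-old plants in field soil; wettable powder in water sprayed over the top at 1,000 g a.i./ha (1,000 L/ha); rating on day 14 post-application.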

Assay [6] relates to green foxtail (Setaria viridis (L.) P. Beauv.). The assay is described as above. The conditions noted are these: 14th day after application; for herbicidal effect, Green Foxtail: foliage treatment, 1,000 g active ingredient per 1 hectare, greenhouse. In outline: as §2
Assay [7] relates to barnyardgrass (Echinochloa crus-galli (L.) P. Beauv. var. crus-galli). Described as above. To be noted: 14th day after application; for herbicidal effect, Barnyardgrass: foliage treatment, 1,000 g active ingredient per 1 hectare, greenhouse. The method, boiled down:
as §2

For assay [8], the system named is slender amaranth (Amaranthus viridis L.). Described as above. The conditions noted are these: 14th day after application; for herbicidal effect, Slender Amaranth: foliage treatment, 1,000 g active ingredient per 1 hectare, greenhouse. The method, boiled down: as §2
Assay [9] concerns heartshape false pickerelweed (Monochoria vaginalis (Burm.f.) C.Presl). Nature of the assay: Test Example 1: herbicidal effect by soil application to paddy field. To be noted: paddy field soil application; active ingredient 1,000 g per 1 hectare; wettable powder added dropwise to water surface the day after sowing; examined on the 21st day after application. In outline: (§3)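 Under greenhouse conditions, seeds sown on puddled paddy soil in 100 cm2 pots under 3 cm of standing water received the test compound; injury was assessed with a standard scoring scheme three weeks (day 21) after treatment.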

Assay [10] has as its system early watergrass (Echinochloa oryzicola Vasing). Described as above. To be noted: paddy field soil application; active ingredient 1,000 g per 1 hectare; wettable powder added dropwise to water surface the day after sowing; examined on the 21st day after application. In outline:
as §3

The subject of assay [11] is Japanese bulrush (Scirpus juncoides Roxb.). Described as above. To be noted: paddy field soil application; active ingredient 1,000 g per 1 hectare; wettable powder added dropwise to water surface the day after sowing; examined on the 21st day after application. In outline:
as §3

Setting [12] is: foliage treatment, plants grown two weeks, 1,000 g active ingredient per hectare.

For `CCCn1c(C(F)(F)F)ccc(C(=O)c2cnn(CC)c2OS(=O)(=O)CCC)c1=O` [IV-202], in [1], the “herbicidal effect (index), Velvetleaf” value was 5 (90% or more of herbicidal effect and crop phytotoxicity). Also, the “herbicidal effect (index), Green Foxtail” value in assay [2] is 5 (90% or more of herbicidal effect and crop phytotoxicity). Further, the “herbicidal effect (index), Barnyardgrass” value in assay [3] was 5 (90% or more of herbicidal effect and crop phytotoxicity). In assay [4], the “herbicidal effect (index), Slender Amaranth” value was 5 (90% or more of herbicidal effect and crop phytotoxicity). Also, in [5], the “herbicidal effect, Velvetleaf” value is 5 (90% or more of herbicidal effect and crop phytotoxicity). Further, the “herbicidal effect, Green Foxtail” value in [6] was 5 (90% or more of herbicidal effect and crop phytotoxicity). In addition, the “herbicidal effect, Barnyardgrass” value in assay [7] was 5 (90% or more of herbicidal effect and crop phytotoxicity). For the same molecule, the “herbicidal effect, Slender Amaranth” value in assay [8] is 5 (90% or more of herbicidal effect and crop phytotoxicity). The “herbicidal effect, Monochoria vaginalis (Burm. f.) C. Presl” value (“herbicidal effect, Monochoria vaginalis” for short) in assay [9] was 5 (90% or more of herbicidal effect and crop phytotoxicity). For the same molecule, in assay [10], the “herbicidal effect, Echinochloa oryzicola Vasing” value was 5 (90% or more of herbicidal effect and crop phytotoxicity). Also, the “herbicidal effect, Scirpus juncoides Roxb.” value in assay [11] was 5 (90% or more of herbicidal effect and crop phytotoxicity).
Regarding `O=C1CCCC(O)=C1C(=O)c1ccc(C(F)(F)F)n(-c2cccc(Cl)c2)c1=O` [I-74], the “herbicidal effect (index), Velvetleaf” value in assay [1] was 5 (90% or more of herbicidal effect and crop phytotoxicity); in assay [5] (setting [12]) it was 5 (90% or more of herbicidal effect and crop phytotoxicity). For the same molecule, the “herbicidal effect (index), Green Foxtail” value in [2] was 5 (90% or more of herbicidal effect and crop phytotoxicity); in assay [6] (setting [12]), 5 (90% or more of herbicidal effect and crop phytotoxicity). Further, the “herbicidal effect (index), Barnyardgrass” value in assay [3] was 5 (90% or more of herbicidal effect and crop phytotoxicity); in assay [7] (setting [12]), 5 (90% or more of herbicidal effect and crop phytotoxicity). The “herbicidal effect (index), Slender Amaranth” value in [4] is 5 (90% or more of herbicidal effect and crop phytotoxicity); in assay [8] (setting [12]) it was 5 (90% or more of herbicidal effect and crop phytotoxicity). The “herbicidal effect, Monochoria vaginalis” value in assay [9] is 5 (90% or more of herbicidal effect and crop phytotoxicity). Further, the “herbicidal effect, Echinochloa oryzicola Vasing” value in assay [10] is 5 (90% or more of herbicidal effect and crop phytotoxicity). For the same molecule, the “herbicidal effect, Scirpus juncoides Roxb.” value in assay [11] was 5 (90% or more of herbicidal effect and crop phytotoxicity).
Regarding `CC(=O)Oc1c(C(=O)c2ccc(C(F)(F)F)n(C)c2=O)cnn1C` [IV-174], the “herbicidal effect (index), Velvetleaf” value in [1] is 5 (90% or more of herbicidal effect and crop phytotoxicity). Moreover, the “herbicidal effect (index), Green Foxtail” value in assay [2] was 5 (90% or more of herbicidal effect and crop phytotoxicity). Also, in [3], the “herbicidal effect (index), Barnyardgrass” value is 5 (90% or more of herbicidal effect and crop phytotoxicity). Further, the “herbicidal effect (index), Slender Amaranth” value in assay [4] was 5 (90% or more of herbicidal effect and crop phytotoxicity). Moreover, the “herbicidal effect, Velvetleaf” value in assay [5] was 5 (90% or more of herbicidal effect and crop phytotoxicity). Moreover, the “herbicidal effect, Green Foxtail” value in assay [6] was 5 (90% or more of herbicidal effect and crop phytotoxicity). The “herbicidal effect, Barnyardgrass” value in [7] is 5 (90% or more of herbicidal effect and crop phytotoxicity). In [8], the “herbicidal effect, Slender Amaranth” value was 5 (90% or more of herbicidal effect and crop phytotoxicity). The “herbicidal effect, Monochoria vaginalis” value in [9] is 5 (90% or more of herbicidal effect and crop phytotoxicity). In addition, the “herbicidal effect, Echinochloa oryzicola Vasing” value in [10] is 5 (90% or more of herbicidal effect and crop phytotoxicity). Besides, the “herbicidal effect, Scirpus juncoides Roxb.” value in [11] was 5 (90% or more of herbicidal effect and crop phytotoxicity).
Take `N#Cc1ccc(Cn2c(C(F)(F)F)ccc(C(=O)C3=C(O)CCCC3=O)c2=O)cc1` [I-119]: the “herbicidal effect (index), Velvetleaf” value in [1] is 5 (90% or more of herbicidal effect and crop phytotoxicity). Also, the “herbicidal effect (index), Green Foxtail” value in assay [2] is 5 (90% or more of herbicidal effect and crop phytotoxicity). Besides, the “herbicidal effect (index), Barnyardgrass” value in [3] was 5 (90% or more of herbicidal effect and crop phytotoxicity). Besides, the “herbicidal effect (index), Slender Amaranth” value in [4] was 5 (90% or more of herbicidal effect and crop phytotoxicity). Further, the “herbicidal effect, Velvetleaf” value in assay [5] was 5 (90% or more of herbicidal effect and crop phytotoxicity). For the same molecule, the “herbicidal effect, Green Foxtail” value in [6] is 5 (90% or more of herbicidal effect and crop phytotoxicity). Moreover, the “herbicidal effect, Barnyardgrass” value in assay [7] is 5 (90% or more of herbicidal effect and crop phytotoxicity). Besides, the “herbicidal effect, Slender Amaranth” value in assay [8] was 5 (90% or more of herbicidal effect and crop phytotoxicity). In addition, the “herbicidal effect, Monochoria vaginalis” value in assay [9] was 5 (90% or more of herbicidal effect and crop phytotoxicity). For the same molecule, the “herbicidal effect, Echinochloa oryzicola Vasing” value in [10] is 5 (90% or more of herbicidal effect and crop phytotoxicity). Moreover, the “herbicidal effect, Scirpus juncoides Roxb.” value in assay [11] was 5 (90% or more of herbicidal effect and crop phytotoxicity).
Turning to `COCc1cc(-n2c(C(F)(F)F)ccc(C(=O)c3cnn(C)c3O)c2=O)ccc1F` [IV-95], in [1], the “herbicidal effect (index), Velvetleaf” value is 5 (90% or more of herbicidal effect and crop phytotoxicity). Also, the “herbicidal effect (index), Green Foxtail” value in assay [2] is 5 (90% or more of herbicidal effect and crop phytotoxicity). In addition, the “herbicidal effect (index), Barnyardgrass” value in assay [3] is 5 (90% or more of herbicidal effect and crop phytotoxicity). Also, the “herbicidal effect (index), Slender Amaranth” value in assay [4] was 5 (90% or more of herbicidal effect and crop phytotoxicity). Moreover, the “herbicidal effect, Velvetleaf” value in [5] was 5 (90% or more of herbicidal effect and crop phytotoxicity). Also, in [6], the “herbicidal effect, Green Foxtail” value was 5 (90% or more of herbicidal effect and crop phytotoxicity). Besides, in assay [7], the “herbicidal effect, Barnyardgrass” value is 5 (90% or more of herbicidal effect and crop phytotoxicity). The “herbicidal effect, Slender Amaranth” value in assay [8] was 5 (90% or more of herbicidal effect and crop phytotoxicity). The “herbicidal effect, Monochoria vaginalis” value in assay [9] is 5 (90% or more of herbicidal effect and crop phytotoxicity). The “herbicidal effect, Echinochloa oryzicola Vasing” value in [10] is 5 (90% or more of herbicidal effect and crop phytotoxicity). In addition, in assay [11], the “herbicidal effect, Scirpus juncoides Roxb.” value is 5 (90% or more of herbicidal effect and crop phytotoxicity).
Turning to `CCN(C)n1c(C(F)(F)F)ccc(C(=O)C2=C(O)CCCC2=O)c1=O` [I-175], in [1], the “herbicidal effect (index), Velvetleaf” value was 5 (90% or more of herbicidal effect and crop phytotoxicity). Moreover, in assay [2], the “herbicidal effect (index), Green Foxtail” value is 5 (90% or more of herbicidal effect and crop phytotoxicity). Also, the “herbicidal effect (index), Barnyardgrass” value in assay [3] is 5 (90% or more of herbicidal effect and crop phytotoxicity). Besides, the “herbicidal effect (index), Slender Amaranth” value in [4] was 5 (90% or more of herbicidal effect and crop phytotoxicity). The “herbicidal effect, Velvetleaf” value in [5] was 5 (90% or more of herbicidal effect and crop phytotoxicity). Besides, the “herbicidal effect, Green Foxtail” value in assay [6] is 4 (70 to less than 90% of herbicidal effect and crop phytotoxicity). Moreover, the “herbicidal effect, Barnyardgrass” value in assay [7] is 5 (90% or more of herbicidal effect and crop phytotoxicity). Moreover, the “herbicidal effect, Slender Amaranth” value in assay [8] was 5 (90% or more of herbicidal effect and crop phytotoxicity). For the same molecule, in [9], the “herbicidal effect, Monochoria vaginalis” value was 5 (90% or more of herbicidal effect and crop phytotoxicity). The “herbicidal effect, Echinochloa oryzicola Vasing” value in [10] was 5 (90% or more of herbicidal effect and crop phytotoxicity). Besides, the “herbicidal effect, Scirpus juncoides Roxb.” value in assay [11] was 5 (90% or more of herbicidal effect and crop phytotoxicity).
In the case of `CCOCCn1c(C(F)(F)F)ccc(C(=O)c2cnn(C)c2O)c1=O` [IV-34], the “herbicidal effect (index), Velvetleaf” value in assay [1] is 5 (90% or more of herbicidal effect and crop phytotoxicity). Besides, the “herbicidal effect (index), Green Foxtail” value in assay [2] was 5 (90% or more of herbicidal effect and crop phytotoxicity). Moreover, the “herbicidal effect (index), Barnyardgrass” value in assay [3] is 5 (90% or more of herbicidal effect and crop phytotoxicity). Also, the “herbicidal effect (index), Slender Amaranth” value in [4] was 5 (90% or more of herbicidal effect and crop phytotoxicity). Also, in assay [5], the “herbicidal effect, Velvetleaf” value is 5 (90% or more of herbicidal effect and crop phytotoxicity). The “herbicidal effect, Green Foxtail” value in assay [6] was 5 (90% or more of herbicidal effect and crop phytotoxicity). For the same molecule, in assay [7], the “herbicidal effect, Barnyardgrass” value is 5 (90% or more of herbicidal effect and crop phytotoxicity). In [8], the “herbicidal effect, Slender Amaranth” value is 5 (90% or more of herbicidal effect and crop phytotoxicity). The “herbicidal effect, Monochoria vaginalis” value in assay [9] is 5 (90% or more of herbicidal effect and crop phytotoxicity). Moreover, the “herbicidal effect, Echinochloa oryzicola Vasing” value in assay [10] is 5 (90% or more of herbicidal effect and crop phytotoxicity). In addition, in assay [11], the “herbicidal effect, Scirpus juncoides Roxb.” value was 5 (90% or more of herbicidal effect and crop phytotoxicity).

For the origin of these results see US8076487B2, “Pyridone derivative and herbicide” (Kumiai Chemical Industry Co., Ltd., priority 2006, dated 2011).
